Measurements from US20090305995A1, “AGONISTS AND ANTAGONISTS OF THE SOMATOSTATIN RECEPTOR” (Novartis AG, priority 2004, published 2009).
Converted amounts (≈) assume the structure as drawn. Where two headings read alike, the source gives them in different places.

Tests used:
[1] = high throughput permeability (HT-Permeability, log Pe); format: physicochemical; settings: PAMPA, Pe in cm/s
[2] = HT-logP o/w, high throughput assay based on artificial liquid membrane permeability; format: physicochemical; settings: octanol/water, read-out: HT LogP ohw
How it was run: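 Octanol/water partition coefficients measured in a high-throughput format based on permeability across an artificial liquid membrane.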

[3] = biological target: T1, hsst4 receptor (Homo sapiens, UniProt P31391); test: radioligand-binding displacement assay ([125I]LTT-SRIF28), receptor expressed in CCL39 cells; settings: for Kd: hsst4, [125I]LTT-SRIF28 displacement
T1 construct: expressed in transfected cells; host or cells: Chinese hamster lung fibroblast (CCL39) cells
Protocol: The generated peptides are tested for their affinity to bind to human SRIF receptors expressed in Chinese hamster lung fibroblast (CCL39) cells. This is achieved in radioligand-binding assays, a displacement experiment in which the concentration of a substance is measured which is necessary for the replacement of 50% of a specifically bound radioligand ([^125I]LTT-SRIF28). Specific binding is measured as the total binding of receptor-specific radioligand minus the amount of radioligand bound in presence of unmarked SRIF-14 (100 nM, nonspecific binding).

[4] = high throughput solubility (HT-Solubility); format: physicochemical; settings: for water solubility (in words): see FIG. 10
[5] = logP octanol by pH-metric titration (GLpKa instrument); format: physicochemical; settings: read-out: log P/D logP octanol
Protocol: In order to have a real measure of log P values for highly polar compounds, respective values for compounds 1 to 3 (C-terminal L-β-homothreonine amides) and compounds 7 to 9 (C-terminal 4-amino-5-methyl-dihydro-fuan-2-ones) are measured by employing pH-metric titration technology using a GLpKa instrument (Box et al. 2003). The high polarity of these two mixed α/β^3-tetrapeptides can be controlled by N-terminal introduction of lipophilization tags. The conjugation with fatty acid analogs leads to compounds with druglike polarity (5, 6, 10, 11, 12, 13, 14, 15, 16, 17, 18 and 26).

[6] = pH 4, pH 4.0, read-out: HT-Permeability logPe pH 4.0 (converted)
[7] = pH 1, pH 1.0, read-out: HT-Solubility pH 1.0
[8] = pH 6.8, pH 6.8, read-out: HT-Solubility pH 6.8
[9] = pH 6.8, pH 6.8, read-out: HT-Permeability logPe pH 6.8 (converted)
[10] = pH 8, pH 8.0, read-out: HT-Permeability logPe pH 8.0 (converted)

T1 sequence (P31391 whole entry): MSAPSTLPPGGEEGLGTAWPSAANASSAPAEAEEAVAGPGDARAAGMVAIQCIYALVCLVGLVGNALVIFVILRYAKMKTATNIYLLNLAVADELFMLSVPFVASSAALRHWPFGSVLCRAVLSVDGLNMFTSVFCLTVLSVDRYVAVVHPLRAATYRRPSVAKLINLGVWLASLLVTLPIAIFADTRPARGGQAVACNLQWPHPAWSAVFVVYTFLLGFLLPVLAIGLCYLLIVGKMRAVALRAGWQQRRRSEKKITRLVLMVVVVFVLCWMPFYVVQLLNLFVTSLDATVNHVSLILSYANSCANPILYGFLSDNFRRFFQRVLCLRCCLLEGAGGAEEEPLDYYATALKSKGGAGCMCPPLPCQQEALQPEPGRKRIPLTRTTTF

SMILES | Papp [1, 6] [nm/s] | logP [2] | binding affinity to hsst4 (in words) [3] | solubility [4, 7] [mg/mL] | solubility [4, 8] [mg/mL] | Papp [1, 9] [nm/s] | Papp [1, 10] [nm/s] | Kd [3] [µM] | water solubility (in words) [4] | HT-Solubility pH 1.0 [4] [g 1-1] | HT-Solubility pH 6.8 [4] [g 1-1] | logP [5]
CCN(CC)C(=O)C[C@@H](NC(=O)C[C@H](CCCCN)NC(=O)[C@@H](Cc1c[nH]c2ccccc12)NC(=O)C[C@H](Cc1ccccc1)NC(C)=O)C(C)C [Compound 22, Ac—(S)-β^3-HPhe-(R)-Trp-(S)-β^3-HLys-(R)-β^3-Leu-diethyl-amide] | 1 | 2.3 | – | 0.0144 (≈ 20.1 µM) | 0.0144 (≈ 20.1 µM) | – | – | 0.166 | – | – | – | –
C[C@H]1OC(=O)C[C@H]1NC(=O)C[C@H](CCCCN)NC(=O)[C@@H](Cc1cn(C)c2ccccc12)NC(=O)C[C@H](Cc1ccccc1)NC(=O)C12CC3CC(CC(C3)C1)C2 [Compound 20, Adamantoyl-(S)-β^3-HPhe-(R)-1-Me-Trp-(S)-β^3-HLys-(R)-4-amino-(R)-5-methyl-dihydro-furan-2-one] | 1 | 2.9 | – | 0.0156 (≈ 20 µM) | 0.0156 (≈ 20 µM) | – | – | 2.95 | – | – | – | –
C[C@H]1OC(=O)C[C@H]1NC(=O)C[C@H](CCCCN)NC(=O)[C@@H](Cc1cn(C)c2ccccc12)NC(=O)C[C@H](Cc1ccccc1)NC(=O)CCc1ccccc1 [Compound 19, Dihydrocinnemoyl-(S)-β^3-HPhe-(R)-1-Me-Trp-(S)-β^3-HLys-(R)-4-amino-(R)-5-methyl-dihydro-furan-2-one] | 1 | 3.7 | – | 0.015 (≈ 20 µM) | 0.015 (≈ 20 µM) | – | – | 0.708 | – | – | – | –
CCCCCN(C)C(=O)C[C@H](CCCCN)NC(=O)[C@@H](Cc1c[nH]c2ccccc12)N(Cc1ccccc1)C(=O)C[C@H](Cc1ccccc1)NC(=O)CC [Compound 66, Propionyl-(S)-β^3-HPhe-(R)—N-Benzyl-Trp-(S)-β^3-HLys-methyl-pentyl-amide] | – | 5.5 | – | 0.147 (≈ 200 µM) | 0.0147 (≈ 19.9 µM) | 79.4 | 39.8 | 0.014 | does not allow for good water solubilities | – | – | –
CC(=O)N[C@H](CC(=O)N[C@H](Cc1c[nH]c2ccccc12)C(=O)N[C@@H](CCCCN)CC(=O)N[C@H](CC(N)=O)[C@@H](C)O)Cc1ccccc1 [Compound 3] | – | – | – | – | – | – | – | – | – | 0.0133 | 0.0133 | 0.4
C[C@H]1OC(=O)C[C@H]1NC(=O)C[C@H](CCCCN)NC(=O)[C@@H](Cc1c[nH]c2ccccc12)NC(=O)C[C@H](Cc1ccccc1)NC(=O)C1CCCCC1 [Compound 5, Cyclohexanoyl-(S)-β^3-HPhe-(R)-Trp-(S)-β^3-HLys-(R)-4-amino-(R)-5-methyl-dihydro-furan-2-one] | 1 | 3.9 | – | 0.0357 (≈ 49.9 µM) | 0.0143 (≈ 20 µM) | – | – | 1.2 | – | – | – | –
CC(=O)N[C@H](CC(=O)N[C@H](Cc1cn(C)c2ccccc12)C(=O)N[C@@H](CCCCN)CC(=O)N[C@@H]1CC(=O)O[C@@H]1C)Cc1ccccc1 [Compound 21, Ac—(S)-β^3-HPhe-(R)-1-Me-Trp-(S)-β^3-HLys-(R)-4-amino-(R)-5-methyl-dihydro-furan-2-one] | 1 | 3.3 | – | 0.0132 (≈ 20 µM) | 0.0132 (≈ 20 µM) | – | – | 0.708 to 2.95 | – | – | – | –
C[C@@H](O)[C@@H](CC(N)=O)NC(=O)C[C@H](CCCCN)NC(=O)[C@@H](Cc1c[nH]c2ccccc12)NC(=O)C[C@H](Cc1ccccc1)NC(=O)C12CC3CC(CC(C3)C1)C2 [Compound 18, Adamantoyl-(S)-β^3-HPhe-(R)-Trp-(S)-β^3-HLys-(R), (R)—HThr-NH2] | 1 | 3.2 | – | 0.0784 (≈ 100 µM) | 0.0157 (≈ 20 µM) | – | – | 6.17 | – | – | – | –
C[C@@H](O)[C@@H](CC(N)=O)NC(=O)C[C@H](CCCCN)NC(=O)[C@@H](Cc1c[nH]c2ccccc12)NC(=O)C[C@H](Cc1ccccc1)NC(=O)CCc1ccccc1 [Compound 15, Dihydrocinnemoyl-(S)-β^3-HPhe-(R)-Trp-(S)-β^3-HLys-(R), (R)—HThr-NH2] | 39.8 | 2.7 | – | 0.0377 (≈ 50 µM) | 0.0151 (≈ 20 µM) | 63.1 | 126 | – | – | – | – | –
CC(=O)N[C@H](CC(=O)N[C@H](Cc1c[nH]c2ccccc12)C(=O)N[C@@H](CCCCN)CC(=O)N[C@H](CC(=O)N(C)CCc1ccccc1)C(C)C)Cc1ccccc1 [Compound 25, Ac—(S)-β^3-HPhe-(R)-Trp-(S)-β^3-HLys-(R)-β^3-Leu-methyl-phenethyl-amide] | 1 | 3.3 | – | 0.078 (≈ 100 µM) | 0.0156 (≈ 20 µM) | – | – | 0.115 | – | – | – | –

The next lines start with the values.

Papp [1, 6] [nm/s] | logP [2] | binding affinity to hsst4 (in words) [3] | solubility [4, 7] [mg/mL] | solubility [4, 8] [mg/mL] | Papp [1, 9] [nm/s] | Papp [1, 10] [nm/s] | Kd [3] [µM] | water solubility (in words) [4] | HT-Solubility pH 1.0 [4] [g 1-1] | HT-Solubility pH 6.8 [4] [g 1-1] | logP [5] | SMILES
10 | 3.3 | lower binding affinities | 0.129 (≈ 200 µM) | 0.129 (≈ 200 µM) | – | – | – | – | – | – | – | CCC(=O)N(C)[C@H](CC(=O)N[C@H](Cc1c[nH]c2ccccc12)C(=O)N[C@@H](CCCCN)CC(=O)NC1CCCC1)Cc1ccccc1 [Compound 46, Propionyl-N-Me-(S)-β^3-HPhe-(R)-Trp-(S)-β^3-HLys-cyclopentyl-amide]
126 | 4.1 | – | 0.135 (≈ 200 µM) | 0.135 (≈ 200 µM) | 25.1 | 50.1 | 0.057 | highest solubility values | – | – | – | CCCCCCN(C)C(=O)C[C@H](CCCCN)NC(=O)[C@@H](Cc1c[nH]c2ccccc12)N(C)C(=O)C[C@H](Cc1ccccc1)NC(=O)CC [Compound 65, Propionyl-(S)-β^3-HPhe-(R)—N-Me-Trp-(S)-β^3-HLys-methyl-hexyl-amide]
1 | 4 | – | 0.0707 (≈ 100 µM) | 0.0141 (≈ 19.9 µM) | – | – | 0.417 | – | – | – | – | NCCCC[C@@H](CC(=O)NC1CCCC1)NC(=O)[C@@H](Cc1c[nH]c2ccccc12)NC(=O)C[C@H](Cc1ccccc1)NC(=O)CCc1ccccc1 [Compound 32, Dihydrocinnemoyl-(S)-β^3-HPhe-(R)-Trp-(S)-β^3-HLys-cyclopentyl-amide]
50.1 | – | – | – | – | 79.4 | 63.1 | – | – | 0.1041 | 0.1041 | 1.5 | CN(C(=O)C[C@@H](N)Cc1ccccc1)[C@H](Cc1c[nH]c2ccccc12)C(=O)N[C@@H](CCCCN)CC(N)=O [Compound 72, (S)-β^3-HPhe-(R)—N-Me-Trp-(S)-β^3-HLys-NH2]
63.1 | 3.1 | – | 0.121 (≈ 200 µM) | 0.121 (≈ 200 µM) | 15.8 | 10 | 0.016 | medium to good | – | – | – | CCCCNC(=O)C[C@H](CCCCN)NC(=O)[C@@H](Cc1c[nH]c2ccccc12)NC(=O)C[C@H](Cc1ccccc1)NC(C)=O [Compound 52, Ace-(S)-β^3-HPhe-(R)-Trp-(S)-β^3-HLys-butyl-amide]
31.6 | 3.4 | – | 0.129 (≈ 200 µM) | 0.129 (≈ 200 µM) | 15.8 | 39.8 | 0.007 | highest solubility values | – | – | – | CCCCCN(C)C(=O)C[C@H](CCCCN)NC(=O)[C@@H](Cc1c[nH]c2ccccc12)NC(=O)C[C@H](Cc1ccccc1)NC(=O)CC [Compound 48]
– | – | – | – | – | – | – | 0.062 | – | – | – | – | CC(=O)N[C@H](CC(=O)N[C@H](Cc1c[nH]c2ccccc12)C(=O)N[C@@H](CCCCN)CC(=O)NC1CCCC1)Cc1ccccc1 [Compound 30]
50.1 | 3.3 | – | 0.129 (≈ 200 µM) | 0.129 (≈ 200 µM) | 39.8 | 126 | 0.035 | highest solubility values | – | – | – | CCCCCNC(=O)C[C@H](CCCCN)NC(=O)[C@@H](Cc1c[nH]c2ccccc12)N(C)C(=O)C[C@H](Cc1ccccc1)NC(=O)CC [Compound 70, Propionyl-(S)-β^3-HPhe-(R)—N-Me-Trp-(S)-β^3-HLys-pentyl-amide]
63.1 | 3.3 | – | 0.124 (≈ 200 µM) | – | – | 251 | 0.01 | medium to good | – | 0.0309 | – | CCCCCNC(=O)C[C@H](CCCCN)NC(=O)[C@@H](Cc1c[nH]c2ccccc12)NC(=O)C[C@H](Cc1ccccc1)NC(C)=O [Compound 44]
– | 3.5 | – | 0.0605 (≈ 100 µM) | 0.0605 (≈ 100 µM) | – | 31.6 | – | – | – | – | – | C[C@H]1OC(=O)C[C@H]1NC(=O)C[C@H](CCCCN)NC(=O)[C@@H](Cc1c[nH]c2ccccc12)NC(=O)C[C@@H](N)Cc1ccccc1 [Compound 28, (S)-β^3-HPhe-(R)-Trp-(S)-β^3-HLys-(R)-4-amino-(R)-5-methyl-dihydro-furan-2-one]
25.1 | 2.8 | – | 0.123 (≈ 200 µM) | 0.123 (≈ 200 µM) | 20 | 10 | – | – | – | – | – | CC(=O)N[C@H](CC(=O)N[C@H](Cc1c[nH]c2ccccc12)C(=O)N[C@@H](CCCCN)CC(=O)NC1CCCC1)Cc1ccccc1 [Compound 31, Ac—(S)-β^3-HPhe-(R)-Trp-(S)-β^3-HLys-cyclopentyl-amide]
